# Source: patent publication US20060019929A1, “Combination therapies employing platelet aggregation drugs” (priority 2004, published 2006)
# Entries after “also recorded” stand apart in the source; their conditions may differ.
# Tests used:
# Format in all cases: in vivo
# [1] = system: patients who underwent percutaneous coronary intervention (PCI); assay: Maximum periprocedural CK-MB in patients with adjunctive platelet aggregation inhibitor (study data of Example 1 re-examined); conditions: adjunctive ASA 82 or 325 mg, eptifibatide, or clopidogrel 75 or 300 mg
# Experimental: Study end points and definitions: The primary objective of the study was to evaluate the feasibility of treatment with P5P as a cardioprotective agent in high-risk elective PCI. The primary end point of infarct size was evaluated by the trapezoidal rule (Press W H, Teukolsky S A, Vetterling W T, Flannery B P. Numerical Recipes. Cambridge, UK: Cambridge University Press, 1994:127-133) using serial CK-MB enzyme measures performed at baseline and every 6 hours for 24 hours beginning immediately before initiation of PCI. The occurrence of myocardial ischemia within 24 hours after PCI was assessed as a secondary end point using continuous 12-lead electrocardiographic monitoring (Northeast Monitoring, Boston, Mass.). […] Area under the curve ST-segment deviation was measured from the onset of the first to the last contrast injection. […]
# [2] = system: patients who underwent percutaneous coronary intervention (PCI); assay: Clinical safety (bleeding, transfusion, chemistries, coagulation, discontinuation)
# Description: (§1) Methods—Study Overview: 60 patients who underwent percutaneous coronary intervention (PCI) at 4 centers were randomized in a 2:1 double-blinded fashion to treatment with P5P or placebo. Inclusion criteria required prior determination for non-urgent PCI of a single-vessel lesion(s) and identification of ≧1 of the following clinical characteristics determining high risk for procedural-related ischemic complications (Califf R M, Abdelmeguid A E, Kuntz R E, Popma J J, Davidson C J, Cohen E A, Kleiman N S, Mahaffey K W, Topol E J, Pepine C J, et al. Myonecrosis after revascularization procedures. J Am Coll Cardiol 1998; 31:241-251; The ESPRIT Investigators. Novel dosing regimen of eptifibatide in planned coronary stent implantation: a randomised, placebo-controlled trial. Lancet 2000; 356:2037-2044): presence of an acute coronary syndrome (chest pain within 48 hours of PCI), recent AMI (≦7 days), diminished epicardial blood flow, angiographic thrombus, ejection fraction ≦30%, or vein graft lesion. In addition to any general contraindication to the PCI procedure or standard concomitant therapies, major exclusion criteria were creatine kinase (CK-MB) elevation above the upper limit of normal immediately before PCI, electrocardiographic evidence of atrial fibrillation or left bundle branch block, or evidence of any clinically significant abnormal laboratory finding (transaminases, bilirubin, or alkaline phosphatase >1.5 times the upper limit of normal or serum creatinine >1.8 mg/dl). Patients with elevated troponin measurements were permitted in the study provided that the peak troponin value was reported >24 hours before scheduled PCI, with documentation of a decreasing value before revascularization. After providing informed consent, patients randomized to treatment with P5P were administered enteric-coated P5P as a 10 mg/kg oral dose ≧4 hours before PCI followed by 2 daily doses of 5 mg/kg orally for 14 days. Compliance and reasons for discontinued treatments were recorded for all patients.
# (§2) Study end points and definitions: The primary objective of the study was to evaluate the feasibility of treatment with P5P as a cardioprotective agent in high-risk elective PCI. The primary end point of infarct size was evaluated by the trapezoidal rule (Press W H, Teukolsky S A, Vetterling W T, Flannery B P. Numerical Recipes. Cambridge, UK: Cambridge University Press, 1994:127-133) using serial CK-MB enzyme measures performed at baseline and every 6 hours for 24 hours beginning immediately before initiation of PCI. The occurrence of myocardial ischemia within 24 hours after PCI was assessed as a secondary end point using continuous 12-lead electrocardiographic monitoring (Northeast Monitoring, Boston, Mass.). Evidence of periprocedural ischemia was defined as ST-segment depression of >100 μV within a 60-minute period of PCI, lasting ≧1 minute and separated from other episodes by ≧1 minute. Area under the curve ST-segment deviation was measured from the onset of the first to the last contrast injection. All cardiac markers and ST-segment monitoring data were analyzed by core laboratories blinded to treatment assignment (University of Maryland School of Medicine, Baltimore, Md.; Duke Ischemia Monitoring Laboratory, Durham, N.C.). […]
# [3] = system: patients who underwent percutaneous coronary intervention (PCI); assay: 30-day composite and individual clinical event rates after PCI; conditions: 30 days
# Description: Methods—Study Overview: 60 patients who underwent percutaneous coronary intervention (PCI) at 4 centers were randomized in a 2:1 double-blinded fashion to treatment with P5P or placebo. Inclusion criteria required prior determination for non-urgent PCI of a single-vessel lesion(s) and identification of ≧1 of the following clinical characteristics determining high risk for procedural-related ischemic complications (Califf R M, Abdelmeguid A E, Kuntz R E, Popma J J, Davidson C J, Cohen E A, Kleiman N S, Mahaffey K W, Topol E J, Pepine C J, et al. Myonecrosis after revascularization procedures. J Am Coll Cardiol 1998; 31:241-251; The ESPRIT Investigators. Novel dosing regimen of eptifibatide in planned coronary stent implantation: a randomised, placebo-controlled trial. Lancet 2000; 356:2037-2044): presence of an acute coronary syndrome (chest pain within 48 hours of PCI), recent AMI (≦7 days), diminished epicardial blood flow, angiographic thrombus, ejection fraction ≦30%, or vein graft lesion. […] Compliance and reasons for discontinued treatments were recorded for all patients.
# as §2, with “Evidence of periprocedural ischemia was defined as ST-segment depression of >100 μV within a 60-minute period of PCI, lasting ≧1 minute and separated from other episodes by ≧1 minute.” left out, “injection.” for “injection. All cardiac markers and ST-segment monitoring data were analyzed by core laboratories blinded to treatment assignment (University of Maryland School of Medicine, Baltimore, Md.; Duke Ischemia Monitoring Laboratory, Durham, N.C.).”
# [4] = system: patients who underwent percutaneous coronary intervention (PCI); assay: 24-h continuous 12-lead electrocardiographic ST monitoring after PCI
# Experimental: Methods—Study Overview: 60 patients who underwent percutaneous coronary intervention (PCI) at 4 centers were randomized in a 2:1 double-blinded fashion to treatment with P5P or placebo. […] Compliance and reasons for discontinued treatments were recorded for all patients.
# as §2, with “Evidence of periprocedural ischemia was defined as ST-segment depression of >100 μV within a 60-minute period of PCI, lasting ≧1 minute and separated from other episodes by ≧1 minute.” left out
# [5] = system: patients who underwent percutaneous coronary intervention (PCI); assay: Procedural and angiographic results (investigator-reported)
# Description: as §1
# Except for a higher incidence of reduced epicardial flow among control patients, baseline angiographic and procedural characteristics also appeared similar between treatment groups (Table 1). Administration of P5P or placebo occurred an average of 6.1 and 8.4 hours before PCI, respectively. Stent implantation was performed in 100% and 97.3% of the placebo and P5P treatment groups, respectively. Only 1 vein graft intervention was performed using distal embolic protection. Although the right coronary artery was most commonly treated in both groups, fewer patients treated with placebo underwent revascularization of a saphenous vein graft (Table 2). Procedural angiographic complications (e.g., major dissection, abrupt vessel closure) were infrequent (Table 2).
# [6] = system: patients who underwent percutaneous coronary intervention (PCI); assay: Periprocedural cardiac markers (serial CK-MB, troponin T) after high-risk elective PCI, P5P vs placebo
# Description: as §1, §2
compound,measurement,setting,value
"COC(=O)[C@H](c1ccccc1Cl)N1CCc2sccc2C1 [Clopidogrel + placebo, clopidogrel]",CK-MB max (mean),[1],3.41 ng/mL
eptifibatide [Eptifibatide + placebo],CK-MB max (mean),[1],3.40 ng/mL
"Cc1ncc(COP(=O)(O)O)c(C=O)c1O [P5P, pyridoxal-5-phosphate]",abnormalities of routine chemistries or coagulation studies versus placebo,[2]; at 7 and 30 days,no apparent differences
same,safety issues related to treatment,"[2]; human, in vivo",No safety issues
same,need for blood product transfusion,[2]; p=0.26 vs placebo,2.5%
same,major bleeding,[2]; p=0.27 vs placebo,2.8%
same,patients discontinued drug therapy before completion of the prescribed 2 weeks,[2]; p=0.77 vs placebo,30.8%
same,30-day deaths,[3],no deaths
same,"30-day composite adverse event rate (death, nonfatal AMI, new and/or worsening heart failure, or recurrent ischemia)",[3]; p=1.0 vs placebo,17.9%
same,30-day nonfatal AMI,[3]; p=1.0 vs placebo,12.8%
same,Area under the curve ST deviation,"[4]; median (interquartile range), 24-h continuous ST monitoring","1349 (951-2.263), 35 μV-min"
same,Any post PCI ischemia,"[4]; percent of patients, within 24 h after PCI",14.7-34%
same,TIMI flow final 0/1,"[5]; after PCI, n = 37",0 number (percent)
same,TIMI flow final 2,"[5]; after PCI, n = 37",0 number (percent)
same,TIMI flow final 3,"[5]; after PCI, n = 37",37 (100) number (percent)
same,Diameter stenosis final,"[5]; median (interquartile range), after PCI",0 (0-0) %
same,Procedural complications: Abrupt closure,[5]; n = 37,0 number (percent)
same,Procedural complications: Distal embolization,[5]; n = 37,0 number (percent)
same,Procedural complications: Major dissection,[5]; n = 37,1 (3) number (percent)
same,Procedural complications: No reflow,[5]; n = 37,0 number (percent)
same,Procedural complications: None,[5]; n = 37,35 (95) number (percent)
same,Procedural complications: Side branch closure,[5]; n = 37,1 (3) number (percent)
same,Procedural complications: Thrombus formation,[5]; n = 37,0 number (percent)
same,maximum / peak periprocedural CK-MB level versus placebo,[6]; P5P vs placebo,significantly lower; also recorded: significant decrease
same,Time to peak CK-MB,[6]; median (interquartile range),"11.0 (0-18.0), 36 h"
same,change in troponin T,"[6]; median (interquartile range), baseline to within 24 h after PCI","0 (0-0.07), 36 ng/ml"
same,Area under the curve CK-MB (periprocedural infarct size),"[6]; median (interquartile range), enteric-coated P5P 10 mg/kg oral ≧4 h before PCI, then 5 mg/kg twice daily 14 days, CK-MB every 6 h for 24 h","18.6 (10.2-34.5), 35 ng/ml"
same,Peak CK-MB,"[6]; median (interquartile range), periprocedural","1.1 (0.5-2.4), 39 ng/ml"
"CC(=O)Oc1ccccc1C(=O)O [ASA + placebo, acetylsalicylic acid]",CK-MB max (mean),[1],3.41 ng/mL
